Experimental data from ChEMBL document CHEMBL5724806, “Unraveling interindividual differences and functional consequences of gut microbial metabolism of immunosuppressants” (2024).

Experiments:
Type in all cases: ADME
[1] = The drug is tested on the gut metagenome community of T-02 with ENA study accession number: PRJEB31790 for biotransformation under microaerobic condition. The drug concentrations were measured over 7 timepoints collected between 0 and 12 hours of incubation by liquid-chromatography-coupled mass spectrometry (LC–MS); parameters: dose 5 uM, timepoint 0, 0.75, 1.5, 3, 6, 9, 12 hours; conditions: 5 µM
[2] = The drug is tested on the gut metagenome community of T-03 with ENA study accession number: PRJEB31790 for biotransformation under microaerobic condition. The drug concentrations were measured over 7 timepoints collected between 0 and 12 hours of incubation by liquid-chromatography-coupled mass spectrometry (LC–MS); parameters: dose 5 uM, timepoint 0, 0.75, 1.5, 3, 6, 9, 12 hours; conditions: 5 µM
[3] = The drug is tested on the gut metagenome community of T-02 with ENA study accession number: PRJEB31790 for biotransformation under anaerobic condition. The drug concentrations were measured over 7 timepoints collected between 0 and 12 hours of incubation by liquid-chromatography-coupled mass spectrometry (LC–MS); parameters: dose 5 uM, timepoint 0, 0.75, 1.5, 3, 6, 9, 12 hours; conditions: 5 µM
[4] = The drug is tested on Streptococcus sanguinis strain: DSM20567 for biotransformation under microaerobic condition. The drug concentrations were measured over 6 timepoints collected between 0 and 12 hours of incubation by liquid-chromatography-coupled mass spectrometry (LC–MS); parameters: dose 5 uM, timepoint 0, 1.5, 3, 6, 9, 12 hours; conditions: 5 µM
[5] = The drug is tested on Streptococcus anginosus strain: DSM20563 for biotransformation under microaerobic condition. The drug concentrations were measured over 6 timepoints collected between 0 and 12 hours of incubation by liquid-chromatography-coupled mass spectrometry (LC–MS); parameters: dose 5 uM, timepoint 0, 1.5, 3, 6, 9, 12 hours; conditions: 5 µM
[6] = The drug is tested on Bifidobacterium longum strain: DSM20088 for biotransformation under microaerobic condition. The drug concentrations were measured over 6 timepoints collected between 0 and 12 hours of incubation by liquid-chromatography-coupled mass spectrometry (LC–MS); parameters: dose 5 uM, timepoint 0, 1.5, 3, 6, 9, 12 hours; conditions: 5 µM
[7] = The drug is tested on Escherichia coli strain: DSM27469 for biotransformation under anaerobic condition. The drug concentrations were measured over 6 timepoints collected between 0 and 12 hours of incubation by liquid-chromatography-coupled mass spectrometry (LC–MS); parameters: dose 5 uM, timepoint 0, 1.5, 3, 6, 9, 12 hours; conditions: 5 µM
[8] = The drug is tested on the gut metagenome community of T-03 with ENA study accession number: PRJEB31790 for biotransformation under anaerobic condition. The drug concentrations were measured over 7 timepoints collected between 0 and 12 hours of incubation by liquid-chromatography-coupled mass spectrometry (LC–MS); parameters: dose 5 uM, timepoint 0, 0.75, 1.5, 3, 6, 9, 12 hours; conditions: 5 µM
[9] = The drug is tested on the gut metagenome community of P-02 with ENA study accession number: PRJEB31790 for biotransformation under microaerobic condition. The drug concentrations were measured over 7 timepoints collected between 0 and 12 hours of incubation by liquid-chromatography-coupled mass spectrometry (LC–MS); parameters: dose 5 uM, timepoint 0, 0.75, 1.5, 3, 6, 9, 12 hours; conditions: 5 µM
[10] = The drug is tested on Gemella haemolysans strain: DSM107751 for biotransformation under anaerobic condition. The drug concentrations were measured over 6 timepoints collected between 0 and 12 hours of incubation by liquid-chromatography-coupled mass spectrometry (LC–MS); parameters: dose 5 uM, timepoint 0, 1.5, 3, 6, 9, 12 hours; conditions: 5 µM
[11] = The drug is tested on Escherichia coli strain: DSM27469 for biotransformation under microaerobic condition. The drug concentrations were measured over 6 timepoints collected between 0 and 12 hours of incubation by liquid-chromatography-coupled mass spectrometry (LC–MS); parameters: dose 5 uM, timepoint 0, 1.5, 3, 6, 9, 12 hours; conditions: 5 µM
[12] = The drug is tested on the gut metagenome community of P-04 with ENA study accession number: PRJEB31790 for biotransformation under microaerobic condition. The drug concentrations were measured over 7 timepoints collected between 0 and 12 hours of incubation by liquid-chromatography-coupled mass spectrometry (LC–MS); parameters: dose 5 uM, timepoint 0, 0.75, 1.5, 3, 6, 9, 12 hours; conditions: 5 µM
[13] = The drug is tested on the gut metagenome community of A-05 with ENA study accession number: PRJEB31790 for biotransformation under microaerobic condition. The drug concentrations were measured over 7 timepoints collected between 0 and 12 hours of incubation by liquid-chromatography-coupled mass spectrometry (LC–MS); parameters: dose 5 uM, timepoint 0, 0.75, 1.5, 3, 6, 9, 12 hours; conditions: 5 µM
[14] = The drug is tested on Lactobacillus reuteri strain: DSM20016 for biotransformation under microaerobic condition. The drug concentrations were measured over 6 timepoints collected between 0 and 12 hours of incubation by liquid-chromatography-coupled mass spectrometry (LC–MS); parameters: dose 5 uM, timepoint 0, 1.5, 3, 6, 9, 12 hours; conditions: limosilactobacillus reuteri, 5 µM
[15] = The drug is tested on the gut metagenome community of T-04 with ENA study accession number: PRJEB31790 for biotransformation under anaerobic condition. The drug concentrations were measured over 7 timepoints collected between 0 and 12 hours of incubation by liquid-chromatography-coupled mass spectrometry (LC–MS); parameters: dose 5 uM, timepoint 0, 0.75, 1.5, 3, 6, 9, 12 hours; conditions: 5 µM
[16] = The drug is tested on Lactobacillus paracasei strain: ATCC27092 for biotransformation under microaerobic condition. The drug concentrations were measured over 6 timepoints collected between 0 and 12 hours of incubation by liquid-chromatography-coupled mass spectrometry (LC–MS); parameters: dose 5 uM, timepoint 0, 1.5, 3, 6, 9, 12 hours; conditions: lacticaseibacillus paracasei, 5 µM
[17] = The drug is tested on the gut metagenome community of T-04 with ENA study accession number: PRJEB31790 for biotransformation under microaerobic condition. The drug concentrations were measured over 7 timepoints collected between 0 and 12 hours of incubation by liquid-chromatography-coupled mass spectrometry (LC–MS); parameters: dose 5 uM, timepoint 0, 0.75, 1.5, 3, 6, 9, 12 hours; conditions: 5 µM
[18] = The drug is tested on the gut metagenome community of A-06 with ENA study accession number: PRJEB31790 for biotransformation under anaerobic condition. The drug concentrations were measured over 7 timepoints collected between 0 and 12 hours of incubation by liquid-chromatography-coupled mass spectrometry (LC–MS); parameters: dose 5 uM, timepoint 0, 0.75, 1.5, 3, 6, 9, 12 hours; conditions: 5 µM
[19] = The drug is tested on the gut metagenome community of T-01 with ENA study accession number: PRJEB31790 for biotransformation under microaerobic condition. The drug concentrations were measured over 7 timepoints collected between 0 and 12 hours of incubation by liquid-chromatography-coupled mass spectrometry (LC–MS); parameters: dose 5 uM, timepoint 0, 0.75, 1.5, 3, 6, 9, 12 hours; conditions: 5 µM
[20] = The drug is tested on Capnocytophaga ochracea strain: DSM7271 for biotransformation under anaerobic condition. The drug concentrations were measured over 6 timepoints collected between 0 and 12 hours of incubation by liquid-chromatography-coupled mass spectrometry (LC–MS); parameters: dose 5 uM, timepoint 0, 1.5, 3, 6, 9, 12 hours; conditions: 5 µM
[21] = The drug is tested on Streptococcus salivarius strain: DSM20560 for biotransformation under anaerobic condition. The drug concentrations were measured over 6 timepoints collected between 0 and 12 hours of incubation by liquid-chromatography-coupled mass spectrometry (LC–MS); parameters: dose 5 uM, timepoint 0, 1.5, 3, 6, 9, 12 hours; conditions: 5 µM
[22] = The drug is tested on Roseburia intestinalis strain: DSM14610 for biotransformation under anaerobic condition. The drug concentrations were measured over 6 timepoints collected between 0 and 12 hours of incubation by liquid-chromatography-coupled mass spectrometry (LC–MS); parameters: dose 5 uM, timepoint 0, 1.5, 3, 6, 9, 12 hours; conditions: 5 µM
[23] = The drug is tested on Lactobacillus reuteri strain: DSM20016 for biotransformation under anaerobic condition. The drug concentrations were measured over 6 timepoints collected between 0 and 12 hours of incubation by liquid-chromatography-coupled mass spectrometry (LC–MS); parameters: dose 5 uM, timepoint 0, 1.5, 3, 6, 9, 12 hours; conditions: limosilactobacillus reuteri, 5 µM
[24] = The drug is tested on the gut metagenome community of A-02 with ENA study accession number: PRJEB31790 for biotransformation under microaerobic condition. The drug concentrations were measured over 7 timepoints collected between 0 and 12 hours of incubation by liquid-chromatography-coupled mass spectrometry (LC–MS); parameters: dose 5 uM, timepoint 0, 0.75, 1.5, 3, 6, 9, 12 hours; conditions: 5 µM
[25] = The drug is tested on Streptococcus salivarius strain: DSM20560 for biotransformation under microaerobic condition. The drug concentrations were measured over 6 timepoints collected between 0 and 12 hours of incubation by liquid-chromatography-coupled mass spectrometry (LC–MS); parameters: dose 5 uM, timepoint 0, 1.5, 3, 6, 9, 12 hours; conditions: 5 µM

SMILES	Bacterial Biotransformation [1]	Bacterial Biotransformation [2]	Bacterial Biotransformation [3]	Bacterial Biotransformation [4]	Bacterial Biotransformation [5]	Bacterial Biotransformation [6]	Bacterial Biotransformation [7]	Bacterial Biotransformation [8]	Bacterial Biotransformation [9]	Bacterial Biotransformation [10]	Bacterial Biotransformation [11]	Bacterial Biotransformation [12]	Bacterial Biotransformation [13]	Bacterial Biotransformation [14]	Bacterial Biotransformation [15]	Bacterial Biotransformation [16]	Bacterial Biotransformation [17]	Bacterial Biotransformation [18]	Bacterial Biotransformation [19]	Bacterial Biotransformation [20]	other results
CO[C@H]1C[C@@H]2CC[C@@H](C)[C@@](O)(O2)C(=O)C(=O)N2CCCC[C@H]2C(=O)O[C@H]([C@H](C)C[C@@H]2CC[C@@H](OCCO)[C@H](OC)C2)CC(=O)[C@H](C)/C=C(\C)[C@@H](O)[C@@H](OC)C(=O)[C@H](C)C[C@H](C)/C=C/C=C/C=C/1C [EVEROLIMUS]	Compound metabolized	Compound NOT metabolized	Compound metabolized	Compound NOT metabolized	Compound NOT metabolized	Compound NOT metabolized	Compound NOT metabolized	Compound NOT metabolized	Compound NOT metabolized	Compound NOT metabolized	Compound NOT metabolized	Compound NOT metabolized	Compound metabolized	Compound NOT metabolized	Compound NOT metabolized	Compound NOT metabolized	Compound NOT metabolized	Compound metabolized	Compound NOT metabolized	Compound NOT metabolized	Bacterial Biotransformation [21]: Compound NOT metabolized; Bacterial Biotransformation [22]: Compound metabolized; Bacterial Biotransformation [23]: Compound NOT metabolized; Bacterial Biotransformation [24]: Compound metabolized; Bacterial Biotransformation [25]: Compound NOT metabolized
NS(=O)(=O)c1cc(C(=O)O)c(NCc2ccco2)cc1Cl [FUROSEMIDE]	Compound NOT metabolized	Compound NOT metabolized	Compound NOT metabolized	Compound NOT metabolized	Compound NOT metabolized	Compound NOT metabolized	Compound NOT metabolized	Compound NOT metabolized	Compound NOT metabolized	Compound NOT metabolized	Compound NOT metabolized	Compound NOT metabolized	Compound NOT metabolized	Compound NOT metabolized	Compound NOT metabolized	Compound NOT metabolized	Compound NOT metabolized	Compound NOT metabolized	Compound NOT metabolized	Compound NOT metabolized	Bacterial Biotransformation [21]: Compound NOT metabolized; Bacterial Biotransformation [22]: Compound NOT metabolized; Bacterial Biotransformation [23]: Compound NOT metabolized; Bacterial Biotransformation [24]: Compound NOT metabolized; Bacterial Biotransformation [25]: Compound NOT metabolized
C[C@]12CCC(=O)C=C1CC[C@@H]1[C@@H]2[C@@H](O)C[C@@]2(C)[C@H]1CC[C@]2(O)C(=O)CO [HYDROCORTISONE]	Compound metabolized	Compound NOT metabolized	Compound metabolized	Compound NOT metabolized	Compound NOT metabolized	Compound NOT metabolized	Compound NOT metabolized	Compound NOT metabolized	Compound NOT metabolized	Compound NOT metabolized	Compound NOT metabolized	Compound metabolized	Compound metabolized	Compound NOT metabolized	Compound NOT metabolized	Compound NOT metabolized	Compound NOT metabolized	Compound metabolized	Compound metabolized	Compound NOT metabolized	Bacterial Biotransformation [21]: Compound NOT metabolized; Bacterial Biotransformation [22]: Compound NOT metabolized; Bacterial Biotransformation [23]: Compound NOT metabolized; Bacterial Biotransformation [24]: Compound metabolized; Bacterial Biotransformation [25]: Compound metabolized
